In article PMC4768221, “Subcellular localization of anthracyclines in cultured rat cardiomyoblasts as possible predictors of cardiotoxicity” (Investigational New Drugs, 2015):
Like-named read-outs stand apart in the source and are kept apart here.

Key:
[1] = design: method as in PMID 16158943; conditions: animal models, compared to DOX and DRB; cited from earlier work
H9c2(2-1) cells [2] = assay: Cell cycle analysis by flow cytometry; assay type: cell-based, rat; conditions: for Cells in G2/M phase / Cells in S phase / Cells in G0/G1 phase: 24 h treatment at equitoxic concentration (IC50); for Cells in G2/M phase: untreated control 8.7 %; for Cells in S phase: untreated control 11 %; for Cells in G0/G1 phase: untreated control 80.1 %; for Cell cycle arrest pattern: 24 h treatment at IC50, data not shown
Description: The cell cycle was analyzed by flow cytometry using a Becton-Dickinson FACSCanto II flow cytometer. H9c2(2-1) cells were seeded at 1 × 10^4 cells/cm^2 in 10 cm^2 culture flasks. After the cells were allowed to grow for 24 h, the medium was replaced and the cells were treated with an equitoxic anthracycline concentration corresponding to IC50. Treatment was performed for 24 h, and then the cells were washed in PBS and trypsinized. After the cells were washed in PBS again, they were fixed in 70 % ethanol and incubated for 1 h on ice. Fixed cells were washed twice in PBS, resuspended in commercially available propidium iodide staining solution and then subjected to flow cytometric assay. The percentages of H9c2(2-1) cells present in G1, S, and G2 phases of the cell cycle after drug treatment were analyzed using FACSDiva 6.1 software.

H9c2(2-1) cells [3] = assay: Cellular uptake (fluorimetric, ethanol/HCl extraction); assay type: cell-based, rat; conditions: 10 μM, 1 h; for Accumulation relative to parent drug (times higher): vs DOX or DRB
Description: Anthracycline uptake was estimated by fluorimetric measurements after the drugs were extracted with an ethanol/HCl mixture as described by Riganti et al.. H9c2(2-1) cells (2 × 10^5) were seeded onto 40 × 11 mm tissue culture dishes for 24 h. Then, the cells were treated in growth medium with 10 μM anthracycline solution at 37 °C for 1 h. After this time, the cells were gently scraped and suspended in 5 ml of ice-cold PBS. The cell suspension aliquots were centrifuged at 1500 rpm for 5 min and then washed twice in ice-cold PBS. Next, cell pellets were collected and resuspended in 2 ml of a 1:1 mixture of ethanol:0.3 M HCl, and the fluorescence intensities of these suspensions were measured at 20 °C using a Perkin-Elmer LS 55 spectrofluorimeter. The optimal excitation and emission wavelengths were 485 and 590 nm, respectively. To estimate the drug concentrations, calibration curves in the concentration range of 0.01–0.5 μM were prepared. Because the fluorescence was quenched slightly in the presence of cells, each point of the calibration curves was measured in the presence of 2 × 10^5 cells suspended in a mixture of ethanol/HCl.

[4] = test system: double-stranded calf thymus DNA; assay: Ethidium bromide displacement assay (affinity to DNA); assay type: binding; conditions: for Kapp (apparent DNA binding constant): ethidium bromide displacement, mean of three ± S.D.; for Kapp relative to parent drug (times lower): vs DOX or DRB
Description: The binding of the anthracyclines to double-stranded calf thymus DNA was tested by the ethidium bromide displacement assay. This method is based on the competition between the tested compound and ethidium bromide for DNA intercalation sites. The fluorescence intensity of ethidium bromide increases upon DNA binding. Addition of a compound displacing intercalated ethidium bromide leads to quenching of the fluorescence of the DNA/ethidium bromide complex. The percentage of initial fluorescence was plotted against the concentration of the added compound, and the IC50 value was read. The IC50 value is defined as the concentration of added compound required to reduce the fluorescence of the DNA/ethidium bromide complex to 50 %. IC50 values were then used to calculate the apparent binding constants of the anthracyclines to DNA.

[5] = Cytotoxicity assay (MTT, inhibition of cell proliferation); assay type: cell-based, rat; conditions: rat
Description: (§1) The cytotoxic activity of the drugs was assayed by measuring their inhibitory effects on H9c2(2-1) cell proliferation. To measure the cytotoxicity of doxorubicin, daunorubicin, and their analogs, the tetrazolium dye method was used. Cells were seeded at 1 × 10^4 cells/well in 48-well plates. After 24 h, the cells were incubated with different concentrations of anthracyclines for 72 h in triplicate in a final volume of 1 ml. Then, 50 μl of a sterile aqueous solution of 3-[4,5-dimethylthiazol-2-yl]-2,5-diphenyl-tetrazolium bromide (5 mg/ml) (Sigma-Aldrich) was added to each well for an additional 3 h. The blue formazan precipitate was dissolved in DMSO (Sigma-Aldrich), and the absorbance of solutions was measured at 540 nm. For each experiment, determinations were performed in three replicates. The IC50 values (the anthracycline concentration effective at inhibiting cell growth after exposure to the drug for 72 h) were read from survival curves, which were fitted to an exponential equation using Xact v. 7.2, a statistical software tool by SciLab (Germany).

[6] = test system: H9c2(2-1) rat cardiomyoblasts; assay: as above; assay type: cell-based; conditions: 72 h
Description: as §1

[7] = H9c2(2-1) rat cardiomyoblast cells, H9c2(2-1) cells, 72 h exposure, MTT, mean of six experiments ± S.D., read-out: Cytotoxicity IC50
[8] = H9c2(2-1) cells, 72 h exposure, MTT, mean of six experiments ± S.D., read-out: Cytotoxicity IC50
[9] = H9c2(2-1), parent DOX or DRB vs analog

| SMILES | Cardiotoxicity in vivo [1] | Cells in G2/M phase (H9c2(2-1) cells [2]) [%] | Cells in S phase (H9c2(2-1) cells [2]) [%] | Cells in G0/G1 phase (H9c2(2-1) cells [2]) [%] | Cellular accumulation higher than DOXM (H9c2(2-1) cells [3]) | Kapp (apparent DNA binding constant) [4] | IC50 at 72 h [5, 7] [nM] | Accumulation relative to DOXM (times higher) (H9c2(2-1) cells [3]) [times] | Accumulation relative to parent drug (times higher) (H9c2(2-1) cells [3]) | Kapp relative to parent drug (times lower) [4] | IC50 at 72 h [5, 8] [nM] | Cytotoxic activity of the parent compound relative to this analog (times higher) [6, 9] | Cell cycle arrest pattern (H9c2(2-1) cells [2]) | IC50 at 72 h [5] [nM] | Cytotoxic activity of the parent compound relative to this analog (times higher) ([6]; rat) [times] | Accumulation relative to other tested compounds (times higher) (H9c2(2-1) cells [3]; other than parent DRB) |
| --- | --- | --- | --- | --- | --- | --- | --- | --- | --- | --- | --- | --- | --- | --- | --- | --- |
| COc1cccc2c1C(=O)c1c(O)c3c(c(O)c1C2=O)C[C@@](O)(C(=O)CO)C[C@@H]3O[C@H]1C[C@H](N)[C@H](O)[C@H](C)O1 [DOX, doxorubicin, reference compound] | most cardiotoxic | 40.6 | 9.0 | 50.4 | approximately 30% | 18.1 ± 0.41 × 10^5 [M^-1] | 35 ± 4 |  |  |  |  |  |  |  |  |  |
| COc1cccc2c1C(=O)c1c(O)c3c(c(O)c1C2=O)C[C@@](O)(C(=O)CO)C[C@@H]3O[C@H]1C[C@H](N=CN2CCCCCC2)[C@H](O)[C@H](C)O1 [DOXH] | lower cardiotoxicity | 13.5 | 36.4 | 50.1 |  | 7.30 ± 0.14 × 10^5 [M^-1] |  | ~2 | 1.5 times | 2.5–2.8 times | 87 ± 7 | ~2.5 times |  |  |  |  |
| COc1cccc2c1C(=O)c1c(O)c3c(c(O)c1C2=O)C[C@@](O)(C(C)=O)C[C@@H]3O[C@H]1C[C@H](N=CN2CCOCC2)[C@H](O)[C@H](C)O1 [DRBM] | lower cardiotoxicity |  |  |  |  | 0.64 ± 0.03 × 10^5 [M^-1] |  |  |  | approximately 20 times |  |  | S phase arrest | 626 ± 18 | 8 |  |
| COc1cccc2c1C(=O)c1c(O)c3c(c(O)c1C2=O)C[C@@](O)(C(=O)CO)C[C@@H]3O[C@H]1C[C@H](N=CN2CCOCC2)[C@H](O)[C@H](C)O1 [DOXM] | lower cardiotoxicity | 13.0 | 33.5 | 53.5 |  | 0.90 ± 0.12 × 10^5 [M^-1] |  |  |  | approximately 20 times | 138 ± 18 | approximately 4 times |  |  |  |  |
| COc1cccc2c1C(=O)c1c(O)c3c(c(O)c1C2=O)C[C@@](O)(C(C)=O)C[C@@H]3O[C@H]1C[C@H](N=CN2CCCCCC2)[C@H](O)[C@H](C)O1 [DRBH] | lower cardiotoxicity |  |  |  |  | 4.1 ± 0.08 × 10^5 [M^-1] |  |  | more than 1.5 times | 2.5–2.8 times | 172 ± 14 | 2 times | S phase arrest |  |  | 5–7 times |
| COc1cccc2c1C(=O)c1c(O)c3c(c(O)c1C2=O)C[C@@](O)(C(C)=O)C[C@@H]3O[C@H]1C[C@H](N)[C@H](O)[C@H](C)O1 [DRB, daunorubicin, reference compound] | most cardiotoxic |  |  |  |  | 11.7 ± 0.22 × 10^5 [M^-1] | 76 ± 7 |  |  |  |  |  | G2/M arrest |  |  |  |
